This is an account of results in patent US20240360114A1 (SIRONAX LTD., priority 2021, published 2024).

SMILES strings stand for the structures.

One assay concerns HT-1080 cells. The experiment in a line: HT-1080 cell viability assay (ferroptosis induced by RSL3, Cell Titer-Glo). Particulars: Homo sapiens, HT-1080, 20 h, ferroptosis inducer RSL3, 20 hours, ferroptosis inhibitory activity, Table 2. In kind it is cell-based. Put shortly:
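Cells seeded overnight, then co-treated with RSL3 and compound (3-fold, 10-point dilution, top 1.1 μM) for 20 hours. Viability by CellTiter-Glo luminescence, normalized to untreated controls; EC50 from sigmoidal non-linear regression.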
On the technique in general: In ATP-based viability assays light output follows the ATP content of the culture.
`CC(C)(C)c1ccccc1NC1CCC(N)CC1` (stereo not drawn) [Compound 126, N1-(2-(tert-butyl)phenyl)cyclohexane-1,4-diamine] yielded an EC50 of 1000 to 10000 nM.

Take `CC(C)c1ccc(NC2CCC(N)CC2)cc1` (stereo not drawn) [Compound 127, N1-(4-isopropylphenyl)cyclohexane-1,4-diamine]: the concentration giving a half-maximal response (EC50) was 100 to 1000 nM.

Compound `Cc1ccc(NC2CCC(N)CC2)cc1` (stereo not drawn) [Compound 128, N1-(p-tolyl)cyclohexane-1,4-diamine] yielded an EC50 of 100 to 1000 nM.

In turn, `CC1(C)CCC(c2ccc(NC3CC(NC(=O)[C@H]4CNC(=O)N4)C3)cc2)CC1` (stereo partly drawn) [Compound 129, (R)—N-(3-((4-(4,4-dimethylcyclohexyl)phenyl)amino)cyclobutyl)-2-oxoimidazolidine-4-carboxamide] registered an EC50 of 100 to 1000 nM.

Turning to `CC(C)(C)c1ccc(NCc2cnc[nH]2)cc1` [Compound 130, N-((1H-imidazol-5-yl)methyl)-4-(tert-butyl)aniline], the EC50 lay within 100 to 1000 nM.

Turning to `CC1(C)CCC(c2ccc(NC3CCNCC3)cc2)CC1` [Compound 131, N-(4-(4,4-dimethylcyclohexyl)phenyl)piperidin-4-amine], the EC50 lay in the range of 0.1 to 100 nM.

`NC1CC(Nc2ccc(C3CCCCC3)cc2)C1` (stereo not drawn) [Compound 132, N1-(4-cyclohexylphenyl)cyclobutane-1,3-diamine] registered an EC50 of 0.1 to 100 nM.

For the compound `NC1CCC(Nc2ccc(F)cc2)CC1` (stereo not drawn) [Compound 134, N1-(4-fluorophenyl)cyclohexane-1,4-diamine], the EC50 lay within 1000 to 10000 nM.

As for `CCCCCc1ccc(NC2CCC(N)CC2)cc1` (stereo not drawn) [Compound 136, N1-(4-pentylphenyl)cyclohexane-1,4-diamine], the concentration giving a half-maximal response (EC50) was in the range of 0.1 to 100 nM.

On to `CCCCc1ccc(NC2CCC(N)CC2)cc1` (stereo not drawn) [Compound 137, N1-(4-butylphenyl)cyclohexane-1,4-diamine], for which the EC50 is 0.1 to 100 nM.

Consider `CC1CC(c2ccc(NC3CCC(N)CC3)cc2)CC(C)O1` (stereo not drawn) [Compound 138, N1-(4-(2,6-dimethyltetrahydro-2H-pyran-4-yl)phenyl)cyclohexane-1,4-diamine], for which the EC50 is 100 to 1000 nM.

Consider `CC(N)C1CCC(Nc2ccc(C3CCC(C)(C)CC3)cc2)CC1` (stereo not drawn) [Compound 140, N-(4-(1-aminoethyl)cyclohexyl)-4-(4,4-dimethylcyclohexyl)aniline], for which the concentration for a half-maximal effect (EC50) lay in the range of 0.1 to 100 nM.

In turn, `CC1(C)CCC(c2ccc(NC3CNC(=O)C3)cc2)CC1` (stereo not drawn) [Compound 141, 4-((4-(4,4-dimethylcyclohexyl)phenyl)amino)pyrrolidin-2-one] registered an EC50 of 100 to 1000 nM.

For `CC1(C)CCC(c2ccc(NC3CC(C(N)=O)C3)cc2)CC1` (stereo not drawn) [Compound 145, 3-((4-(4,4-dimethylcyclohexyl)phenyl)amino)cyclobutane-1-carboxamide], the EC50 lay within 0.1 to 100 nM.

`CNC1CCC(Nc2ccc(C(C)(C)C)cc2)CC1` (stereo not drawn) [Compound 147, N1-(4-(tert-butyl)phenyl)-N4-methylcyclohexane-1,4-diamine] had an EC50 of 0.1 to 100 nM.

Turning to `CC(C)(C)c1ccc(NC2CCCNC2)cc1` (stereo not drawn) [Compound 150, N-(4-(tert-butyl)phenyl)piperidin-3-amine], the 50% effective concentration (EC50) was 100 to 1000 nM.

Consider `CC1(C)CCC(c2ccc(NC3CCC(O)C3)cc2)CC1` (stereo not drawn) [Compound 151], for which the half-maximal effective concentration (EC50) fell in the range of 0.1 to 100 nM.

`CC(C)(C)c1ccc(NC2CCCCC2N)cc1` (stereo not drawn) [Compound 152, N1-(4-(tert-butyl)phenyl)cyclohexane-1,2-diamine]: the EC50 fell in the range of 100 to 1000 nM.

`CC1(C)CCC(c2ccc(NC3CCN(C(=O)[C@H]4CNC(=O)N4)CC3)cc2)CC1` [Compound 154, (R)-4-(4-((4-(4,4-dimethylcyclohexyl)phenyl)amino)piperidine-1-carbonyl) imidazolidin-2-one]: the EC50 is 100 to 1000 nM.

`CC1(C)CCC(c2ccc(NC3CCC(NC(=O)[C@H]4CNC(=O)N4)CC3)cc2)CC1` (stereo partly drawn) [Compound 156C]: the EC50 is 0.1 to 100 nM.

With `CC1(C)CCC(c2ccc(NCCNC(=O)[C@H]3CNC(=O)N3)cc2)CC1` [Compound 158, (R)—N-(2-((4-(4,4-dimethylcyclohexyl)phenyl)amino)ethyl)-2-oxoimidazolidine-4-carboxamide], the half-maximal effective concentration (EC50) lay in the range of 100 to 1000 nM.

`NC1CCC(Nc2ccc(F)c(F)c2)CC1` (stereo not drawn) [Compound 160, N1-(3,4-difluorophenyl)cyclohexane-1,4-diamine] came in with a concentration for a half-maximal effect (EC50) of 1000 to 10000 nM.

As to `NC1CCC(Nc2ccc(Cl)cc2)CC1` (stereo not drawn) [Compound 161, N1-(4-chlorophenyl)cyclohexane-1,4-diamine], the EC50 lay within 1000 to 10000 nM.

With `NC1CCC(Nc2ccc3c(c2)CCC3)CC1` (stereo not drawn) [Compound 162, N1-(2,3-dihydro-1H-inden-5-yl)cyclohexane-1,4-diamine], the half-maximal effective concentration (EC50) lay in the range of 100 to 1000 nM.

For the compound `NC1CCC(Nc2cccnc2)CC1` (stereo not drawn) [Compound 163, N1-(pyridin-3-yl)cyclohexane-1,4-diamine], the EC50 was in the range of 1000 to 10000 nM.

For the compound `NC1CCC(Nc2cccc3c2CCO3)CC1` (stereo not drawn) [Compound 164, N1-(2,3-dihydrobenzofuran-4-yl)cyclohexane-1,4-diamine], the EC50 lay within 1000 to 10000 nM.

In turn, `NC1CCC(Nc2ccc(Br)cc2)CC1` (stereo not drawn) [Compound 165, N1-(4-bromophenyl)cyclohexane-1,4-diamine] gave a concentration for a half-maximal effect (EC50) of 1000 to 10000 nM.

With `NC1CCC(Nc2ccc3c(c2)OCC3)CC1` (stereo not drawn) [Compound 166, N1-(2,3-dihydrobenzofuran-6-yl)cyclohexane-1,4-diamine], the 50% effective concentration (EC50) was in the range of 1000 to 10000 nM.

The compound `CC1(C)CCC(c2ccc(NC3CCC(CN)CC3)cn2)CC1` (stereo not drawn) [Compound 167, N-(4-(aminomethyl)cyclohexyl)-6-(4,4-dimethylcyclohexyl)pyridin-3-amine] returned an EC50 of 100 to 1000 nM.

For `CC(C)(C)c1ccc(NC2CCC(NCC(F)(F)F)CC2)cc1` (stereo not drawn) [Compound 168A, N-(4-(tert-butyl)phenyl)-N-(2,2,2-trifluoroethyl)cyclohexane-1,4-diamine], the EC50 lay in the range of 1000 to 10000 nM.

Take `COCCNC1CCC(Nc2ccc(C(C)(C)C)cc2)CC1` (stereo not drawn) [Compound 169, 1-N-(4-(tert-butyl)phenyl)-N4-(2-methoxyethyl)cyclohexane-1,4-diamine]: the concentration giving a half-maximal response (EC50) lay within 100 to 1000 nM.

`NC1CCC(Nc2ccc(C3CCOCC3)cc2)CC1` (stereo not drawn) [Compound 170, 1-N-(4-(tetrahydro-2H-pyran-+-yl)phenyl)cyclohexane-1,4-diamine] showed an EC50 of 1000 to 10000 nM.

Turning to `CC1(C)CCC(c2ccc(NCCCN3CCCC3)cc2)CC1` [Compound 171, 4-(4,4-dimethylcyclohexyl)-N-(3-(pyrrolidin-1-yl)propyl)aniline], the EC50 lay in the range of 0.1 to 100 nM.

`CCC(C)(C)c1ccc(NC2CCC(C)(N)CC2)cc1` (stereo not drawn) [Compound 172, 1-methyl-N4-(4-(tert-pentyl)phenyl)cyclohexane-1,4-diamine] showed an EC50 of 0.1 to 100 nM.

For the compound `CCCOc1ccc(NC2CCC(N)CC2)cc1` (stereo not drawn) [Compound 174, N1-(4-propoxyphenyl)cyclohexane-1,4-diamine], the 50% effective concentration (EC50) fell in the range of 0.1 to 100 nM.

`CC(C)(C)c1ccc(NCCn2ccnc2)cc1` [Compound 175, N-(2-(1H-imidazol-1-yl)ethyl)-4-(tert-butyl)aniline] registered a concentration for a half-maximal effect (EC50) of 1000 to 10000 nM.

With `CC1(C)CCC(c2ccc(NCCN)cc2)CC1` [Compound 176, N1-(4-(4,4-dimethylcyclohexyl)phenyl)ethane-1,2-diamine], the EC50 fell in the range of 100 to 1000 nM.

The compound `CC(C)(C)c1ccc(NCCc2cnc[nH]2)cc1` [Compound 177, N-(2-(1H-imidazol-5-yl)ethyl)-4-(tert-butyl)aniline] registered a 50% effective concentration (EC50) of 1000 to 10000 nM.

Compound `CC(C)(C)c1ccc(NCCOCCO)cc1` [Compound 179, 2-(2-((4-(tert-butyl)phenyl)amino)ethoxy) ethan-1-ol] gave a half-maximal effective concentration (EC50) of 1000 to 10000 nM.

Regarding `NC1CCC(Nc2ccc(C3CC3)cc2)CC1` (stereo not drawn) [Compound 181, N1-(4-cyclopropylphenyl)cyclohexane-1,4-diamine], the concentration giving a half-maximal response (EC50) is 100 to 1000 nM.

Take `Cc1cc(C(C)(C)C)ccc1NC1CCC(N)CC1` (stereo not drawn) [Compound 184, N1-(4-(tert-butyl)-2-methylphenyl)cyclohexane-1,4-diamine]: the EC50 was in the range of 100 to 1000 nM.

Compound `Cc1nc(N2CC(C)OC(C)(C)C2)ccc1NC1CC2(CC(N)C2)C1` (stereo not drawn) [Compound 185, N2-(2-methyl-6-(2,2,6-trimethylmorpholino)pyridin-3-yl)spiro[3.3]heptane-2,6-diamine] showed an EC50 of 1000 to 10000 nM.

As for `CC(C)(C)c1ccc(NC2CCC(N)CC2)c(C#N)c1` (stereo not drawn) [Compound 187, 2-((4-aminocyclohexyl)amino)-5-(tert-butyl)benzonitrile], the concentration for a half-maximal effect (EC50) lay in the range of 1000 to 10000 nM.

With `CCCC(CCC)Nc1ccc(C(C)(C)C)cc1` [Compound 188, 4-(tert-butyl)-N-(heptan-4-yl)aniline], the 50% effective concentration (EC50) lay in the range of 100 to 1000 nM.

`CC(C)(C)c1ccc(NC2CCC(N)(C(=O)O)CC2)cc1` (stereo not drawn) [Compound 189, 1-amino-4-((4-(tert-butyl)phenyl)amino)cyclohexane-1-carboxylic acid] gave an EC50 of 1000 to 10000 nM.

For `CC(C)(C)c1ccc(NC2CCC(N)CC2)c(F)c1` (stereo not drawn) [Compound 190, N1-(4-(tert-butyl)-2-fluorophenyl)cyclohexane-1,4-diamine], the EC50 is 100 to 1000 nM.

The same assay, now with this note: Homo sapiens, ferroptosis inducer RSL3, 20 hours, ferroptosis inhibitory activity, Table 2.
Compound `CCCCN(CCCC)CCNc1ccc(C2CCCCC2)cc1` [Compound 173, N1,N1-dibutyl-N2-(4-cyclohexylphenyl)ethane-1,2-diamine] had an EC50 of 100 to 1000 nM.

On to `CC(C)(C)c1ccc(NC2CCN(C(N)=O)CC2)cc1` [Compound 178, 4-((4-(tert-butyl)phenyl)amino)piperidine-1-carboxamide], for which the 50% effective concentration (EC50) is 1000 to 10000 nM.

Consider `CC(C)(C)c1ccc(NC2CCN(S(N)(=O)=O)CC2)cc1` [Compound 180, 4-((4-(tert-butyl)phenyl)amino)piperidine-1-sulfonamide], for which the EC50 was in the range of 100 to 1000 nM.

The assay is the same for the next values; noted with them: ferroptosis inducer RSL3, 20 hours, ferroptosis inhibitory activity, Table 2.
Compound `NC1CCC(Nc2ccc(C3CCCCC3)cc2)CC1` (stereo not drawn) [Compound 133, N1-(4-cyclohexylphenyl)cyclohexane-1,4-diamine] came in with an EC50 of 0.1 to 100 nM.

The compound `CC1CN(c2ccc(NC3CC4(CC(N)C4)C3)cc2F)CC(C)N1CC(F)(F)F` (stereo not drawn) [Compound 186, N2-(4-(3,5-dimethyl-4-(2,2,2-trifluoroethyl)piperazin-1-yl)-3-fluorophenyl) spiro-[3.3]heptane-2,6-diamine] gave a half-maximal effective concentration (EC50) of 100 to 1000 nM.

The term EC50 denotes the concentration needed to bring the measured effect to its halfway point. Higher therefore signals a less potent agent.
